Results reported in patent US20120165319A1, “INHIBITORS OF INTERLEUKIN-1 BETA CONVERTING ENZYME” (VERTEX PHARMACEUTICALS INCORPORATED, priority 1995, published 2012).
Where two headings read alike, the source gives them in different places.

What was measured:
[1] = system: IL-1β, human peripheral blood mononuclear cells (PBMC); test: PBMC cell assay: IL-1β assay with human PBMC or enriched adherent mononuclear cells, LPS-stimulated; type: cell-based
In short: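 Mature IL-1β is measured by ELISA in supernatants after 16–18 hr at 37 °C, 5% CO2, with LPS (5 ng/ml final) and test compound (0.1% DMSO final). Cells are human PBMC (6×10^6 cells/ml) or plate-adherent mononuclear cells (2.5−3.0×10^5 per well), and the 5–6 compound concentrations span the ICE Ki.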

IL-1β, human whole blood = test: Whole blood assay for IL-1β production; type: cell-based
In short: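 IL-1β was quantified by ELISA in plasma diluted 1:200. The plasma came from EDTA-anticoagulated human whole blood incubated at 30 °C for 16-18 h with LPS (final 5.0 ng/ml) plus a saline serial dilution of compound. Controls were no-LPS, no-inhibitor and highest-vehicle.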

[2] = Homo sapiens, PBMC, * = values obtained upon reassay
[3] = Homo sapiens, * = values obtained upon reassay, read-out: Whole human blood IC50
[4] = * = values obtained upon reassay, read-out: Whole human blood IC50
[5] = * = values obtained upon reassay
[6] = Homo sapiens, Table 17, read-out: Whole human blood IC50

Row | Molecule | IC50 [1, 2] [nM] | IC50 (IL-1β, human whole blood; [3]) [nM] | other results
1 | COC(=O)C[C@H](NC(=O)[C@@H]1CCCN2C(=O)CC[C@H](NC(=O)c3ccccc3)C(=O)N12)C(OC)OC [Compound 2100c] | > 20000 | > 20000 | –
2 | CN(C)c1cccc(C(=O)N[C@H]2CCC(=O)N3CCC[C@@H](C(=O)N[C@H](C=O)CC(=O)O)N3C2=O)c1 [Compound 470] | 500 | 360 | IC50 (IL-1β, human whole blood; [4]): 500 nM
3 | Cc1ccccc1C(=O)N[C@H]1CCC(=O)N2CCC[C@@H](C(=O)N[C@H](C=O)CC(=O)O)N2C1=O [Compound 404] | 1650 | 1100 | IC50 [1, 5]: 1800 nM
4 | O=C[C@H](CC(=O)O)NC(=O)[C@@H]1CCCN2C(=O)CC[C@H](NC(=O)c3cc4ccccc4[nH]3)C(=O)N12 [Compound 475, [3S(1S,9S)]3-[6,10-Dioxo-9-(indol-2-oylamino)-1,2,3,4,7,8,9,10-octahydro-6H-pyridazino[1,2-a][1,2]diazepine-1-carboxamido]-4-oxobutanoic acid] | 690 | 400 | IC50 [1, 5]: 650 nM; IC50 (IL-1β, human whole blood; [4]): 350 nM
5 | COC(=O)N[C@H]1CCC(=O)N2CCC[C@@H](C(=O)N[C@@H](CC(=O)O)C(=O)CSc3ncccn3)N2C1=O [Compound 511c, [3S(1S,9S)]3-[6,10-Dioxo-9-(methoxycarbonyl)-amino-1,2,3,4,7,8,9,10-octahydro-6H-pyridazino[1,2-a][1,2]diazepine-1-carboxamido]-5-(2-mercaptopyrimidine)-4-oxopentanoic acid] | – | – | IC50 ([1]; Homo sapiens, PBMC, Table 17): > 20000 nM
6 | O=C(O)C[C@H](NC(=O)[C@@H]1CCCN2C(=O)CC[C@H](NC(=O)CCc3ccccc3)C(=O)N12)C(=O)CSCc1ccccc1Cl [Compound 125b, [3S(1S,9S)]-3-(6,10-dioxo-1,2,3,4,7,8,9,10-octahydro)-9-(3-phenylpropionyl-amino)-6H-pyridazine[1,2-a][1,2]diazepine-1-carboxamido-5-(2-chlorophenyl-methylthio)-4-oxopentanoic acid] | 800 | 4500 | –
7 | O=C(O)C[C@H](NC(=O)[C@@H]1CCCN2C(=O)CC[C@H](NC(=O)c3ccccc3)C(=O)N12)C(=O)CSc1nnnn1-c1ccccc1 [Compound 280, [3S(1S,9S)]3-(9-Benzoylamino-6,10-dioxo-1,2,3,4,7,8,9,10-octahydro-6H-pyridazino[1,2-a][1,2]diazepine-1-carboxamido)-4-oxo-5(1-phenyl-1H-tetrazole-5-thio)pentanoic acid] | 650 | > 1000 | –
8 | CC(C)C(=O)Nc1ccc(C(=O)N[C@H]2CCC(=O)N3CCC[C@@H](C(=O)N[C@H](C=O)CC(=O)O)N3C2=O)cc1 [Compound 484] | 1550 | 5000 | IC50 [1, 5]: 1400 nM
9 | O=C[C@H](CC(=O)O)NC(=O)[C@@H]1CCCN2C(=O)CC[C@H](NC(=O)c3nccc4ccccc34)C(=O)N12 [Compound 412, [3S(1S,9S)]3-[6,10-Dioxo-9-(isoquinolin-1-oylamino)-1,2,3,4,7,8,9,10-octahydro-6H-pyridazino[1,2-a][1,2]diazepine-1-carboxamido]-4-oxobutanoic acid] | 580 | 700 | IC50 [1, 5]: 660 nM; IC50 (IL-1β, human whole blood; [4]): 1000 nM
10 | O=C(O)C[C@H](NC(=O)[C@@H]1CCCN2C(=O)CC[C@H](NC(=O)OCc3ccccc3)C(=O)N12)C(=O)COC(=O)c1c(Cl)cccc1Cl [Compound 217d, [3S(1S,9S)]3-(9-Benzyloxycarbonylamino-6,10-dioxo-1,2,3,4,7,8,9,10-octahydro-6H-pyridazino[1,2-a][1,2]-diazepine-1-carboxamido)-5-(2,6-dichlorobenzoyloxy)-4-oxopentanoic acid] | 340 | 4000 | –
11 | O=C[C@H](CC(=O)O)NC(=O)CN1C(=O)[C@@H](NC(=O)c2cc(Cl)c(O)c(Cl)c2)CN(C(=O)CO)c2ccccc21 [Compound 662, (3S)-3-[(3S)-2-Oxo-3-(3,5-dichloro-4-hydroxybenzoyl)amino-5-(2-hydroxy)acetyl-2,3,4,5-tetrahydro-1H-1,5-benzodiazepine-1-acetylamino]-4-oxo-butyric acid] | – | – | IC50 ([1]; Homo sapiens, PBMC, Table 17): 1800 nM; IC50 (IL-1β, human whole blood; [6]): 800 nM
12 | O=C[C@H](CC(=O)O)NC(=O)[C@@H]1CCCN2C(=O)CCN(NS(=O)(=O)c3ccccc3)C(=O)N12 [Compound 1027, [3S(4S)]3-(6,10-Dioxo-1,2,3,4,7,8,9,10-octahydro-7-phenylsulphonylamino-6H-pyridazino[1,2-a][1,2,4]triazepine-4-carboxamido)-4-oxobutanoic acid] | > 20000 | > 20000 | –
13 | O=C[C@H](CC(=O)O)NC(=O)[C@@H]1CCCN2C(=O)CCN(NC(=O)c3cc4ccccc4[nH]3)C(=O)N12 [Compound 1075, [3S(4S)]3-[6,10-Dioxo-7-(indole-2-carboxamido)-1,2,3,4,7,8,9,10-octahydro-6H-pyridazino[1,2-a][1,2,4]triazepine-4-carboxamido]-4-oxobutanoic acid] | – | – | IC50 ([1]; Homo sapiens, PBMC, Table 17): 5000 nM; IC50 (IL-1β, human whole blood; [6]): 5500 nM
14 | [3S(1S,9S)]3-[(6,10-Dioxo-9-(methanesulphonylamino)-1,2,3,4,7,8,9,10-octahydro-6H-pyridazino[1,2-a][1,2]diazepine-1-carboxamido]-5-(5-methyl-3-phenylisoxazoyloxy)-4-oxopentanoic acid [505 b] | – | – | IC50 ([1]; Table 18): 1500 nM; IC50 (IL-1β, human whole blood; Table 18, read-out: Whole human blood IC5O): 2100 nM
15 | O=C[C@H](CC(=O)O)NC(=O)[C@@H]1CCCN2C(=O)CC[C@H](NC(=O)c3ccsc3)C(=O)N12 [Compound 410] | 2000 | 2800 | –
16 | O=C[C@H](CC(=O)O)NC(=O)[C@@H]1CCCN2C(=O)CCN(NC(=O)c3cc4ccccc4s3)C(=O)N12 [Compound 1053, [3S(4S)]3-[7-(Benzo[b]thiophene-2-carbonyl)amino-6,10-dioxo-1,2,3,4,7,8,9,10-octahydro-6H-pyridazino[1,2-a][1,2,4]triazepine-4-carboxamido]-4-oxobutanoic acid] | – | – | IC50 ([1]; Homo sapiens, PBMC, Table 17): 2000 nM; IC50 (IL-1β, human whole blood; [6]): > 20000 nM
17 | CC(C)OC(=O)C[C@H](NC(=O)[C@@H]1CCCN2C(=O)CC[C@H](NC(=O)c3ccccc3)C(=O)N12)C(OC(C)C)OC(C)C [Compound 2100d] | > 20000 | > 20000 | –
18 | O=C[C@H](CC(=O)O)NC(=O)[C@@H]1CCCN2C(=O)CC[C@H](NC(=O)c3cccc(Cl)c3)C(=O)N12 [Compound 455] | 400 | 2800 | IC50 (IL-1β, human whole blood; [4]): 2600 nM
19 | O=C1C[C@H](NC(=O)[C@@H]2CCCN3C(=O)CC[C@H](NC(=O)C(=O)c4ccccc4)C(=O)N23)C(OCc2ccccc2)O1 (stereo partly drawn) [Compound 2001, [1S,9S(2RS,3S)]9-Benzoylformylamino-6,10-dioxo-1,2,3,4,7,8,9,10-octahydro-N-(2(R,S)-benzyloxy-5-oxotetrahydrofuran-3-yl)-6H-pyridazino[1,2-a][1,2]-diazepine-1-carboxamide] | 1800 | 3500 | –
20 | O=C(O)CC(NC(=O)[C@@H]1CCCN2C(=O)CC[C@H](NC(=O)c3ccccc3)C(=O)N12)C(=O)CF (stereo partly drawn) [Compound 230e, [3RS,(1S,9S)]3-(9-Benzoylamino-6,10-dioxo-1,2,3,4,7,8,9,10-octahydro-6H-pyridazino[1,2-a][1,2]-diazepine-1-carboxamido)-5-fluoro-4-oxopentanoic acid] | – | – | IC50 [1, 5]: 325 nM; IC50 (IL-1β, human whole blood; [4]): 300 nM
21 | COCC(=O)N1C[C@H](NC(=O)c2ccccc2)C(=O)N(CC(=O)N[C@H](C=O)CC(=O)O)c2ccccc21 [Compound 605e, (3S)-3-[(3S)-2-Oxo-3-benzoylamino-5-methoxyacetyl-2,3,4,5-tetrahydro-1H-1,5-benzodiazepin-1-acetylamino]-4-oxo-butyric acid] | 2250 | > 10000 | –
22 | Cc1cc(C(=O)N[C@H]2CCC(=O)N3CCC[C@@H](C(=O)N[C@H](C=O)CC(=O)O)N3C2=O)cc(C)c1O [Compound 214w] | – | – | IC50 ([1]; Table 17): 620 nM; IC50 (IL-1β, human whole blood; Table 17, read-out: Whole human blood IC50): 370 nM
23 | O=C[C@H](CC(=O)O)NC(=O)[C@@H]1CCCN2C(=O)CCN(NC(=O)c3ccccc3)C(=O)N12 [Compound 265, [3S(4S)]3-(7-Benzamido-6,10-dioxo-1,2,3,4,7,8,9,10-octahydro-6H-pyridazino[1,2-a][1,2,4]triazepine-4-carboxamido)-4-oxobutanoic acid] | 4300 | 1400 | –
24 | CC(=O)N1C[C@H](NC(=O)c2cc(C)c(O)c(C)c2)C(=O)N(CC(=O)N[C@H](C=O)CC(=O)O)c2ccccc21 [Compound 671, (3S)-3-[(3S)-2-Oxo-3-(3,5-dimethyl-4-hydroxybenzoyl)amino-5-acetyl-2,3,4,5-tetrahydro-1H-1,5-benzodiazepine-1-acetylamino]-4-oxo-butyric acid] | – | – | IC50 ([1]; Homo sapiens, PBMC, Table 17): 2000 nM; IC50 (IL-1β, human whole blood; [6]): 2500 nM
25 | O=C[C@H](CC(=O)O)NC(=O)[C@@H]1CCCN2C(=O)CC[C@H](NC(=O)c3ccc4c(c3)OCO4)C(=O)N12 [Compound 415, [3S(1S,9S)]3-[6,10-Dioxo-9-(3,4-methylenedioxybenzoylamino)-1,2,3,4,7,8,9,10-octahydro-6H-pyridazino[1,2-a][1,2]diazepine-1-carboxamido]-4-oxobutanoic acid] | 990 | – | IC50 [1, 5]: 1000 nM
26 | N#C[C@H](CC(=O)O)NC(=O)[C@@H]1CCCN2C(=O)CC[C@H](NC(=O)c3ccccc3)C(=O)N12 [Compound 232e, [3S(1S,9S)]9-(Benzoylamino)-3-[6,10-dioxo-1,2,3,4,7,8,9,10-octahydro-6H-pyridazino-[1,2-a][1,2]diazepine-1-carboxamido]-3-cyanopropanoic acid] | 4500 | – | –
